Source: US5556744A, “Methods and compositions for diagnosing and treating certain HIV infected patients” (The Trustees of the University of Pennsylvania, priority 1994, dated 1996)

Assays:
[1] = test system: maternal HIV+ sera (antibodies); assay: RIA / ELISA binding of maternal HIV+ sera to gp120 and gp41 peptides (Example 3); design: species or system human
Summary of the method: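 Peptides were coated at 10 μg/ml in carbonate buffer pH 9.6 and blocked with 1% BSA. Sera at 1:50 and 1:500 were incubated overnight at 4°C and detected with ¹²⁵I anti-human IgG (RIA) or HRP/TMB at OD450 (ELISA). Specific binding was taken as peptide minus no-peptide wells, scored as a ratio to normal human serum.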

[2] = test system: maternal sera (antibodies); assay: ELISA peptide-binding of maternal sera (Example 6); design: species or system human; settings: for Number of Non-Transmitters which bound to peptide / Percent of Non-Transmitters which bound to peptide: N = 12; for Number of Transmitters which bound to peptide / Percent of Transmitters which bound to peptide: N = 4
Summary of the method: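 Third-trimester maternal sera, from HIV-1 transmitting and non-transmitting mothers, were tested by ELISA against ~16-residue peptides spanning HIV-1 external and transmembrane glycoproteins. Each serum was run with at least 40 peptides, and values are the percentage of sera binding each peptide.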

[3] = Serum No. 1, Non-Transmission Group
[4] = Serum No. 2, Non-Transmission Group
[5] = Serum No. 3, Non-Transmission Group
[6] = Serum No. 4, Transmission Group
[7] = Serum No. 5, Transmission Group
[8] = Serum No. 6, Non-Transmission Group
[9] = Serum No. 7, Non-Transmission Group
[10] = Serum No. 8, Non-Transmission Group
[11] = Serum No. 9, Non-Transmission Group
[12] = Serum No. 10, Transmission Group
[13] = Serum No. 11, Non-Transmission Group
[14] = Serum No. 12, Non-Transmission Group
[15] = Serum No. 13, Transmission Group
[16] = Serum No. 14, Transmission Group
[17] = Serum No. 15, Transmission Group
[18] = Serum No. 16, Non-Transmission Group
[19] = Serum No. 17, Non-Transmission Group
[20] = Serum No. 18, Non-Transmission Group
[21] = Serum No. 19, Transmission Group
[22] = Serum No. 20, Non-Transmission Group

Sequence | Binding of maternal HIV+ serum to peptide (sera/NHS ratio) [1, 3] | Binding of maternal HIV+ serum to peptide (sera/NHS ratio) [1, 4] | Binding of maternal HIV+ serum to peptide (sera/NHS ratio) [1, 5] | Binding of maternal HIV+ serum to peptide (sera/NHS ratio) [1, 6] | Binding of maternal HIV+ serum to peptide (sera/NHS ratio) [1, 7] | Binding of maternal HIV+ serum to peptide (sera/NHS ratio) [1, 8] | Binding of maternal HIV+ serum to peptide (sera/NHS ratio) [1, 9] | Binding of maternal HIV+ serum to peptide (sera/NHS ratio) [1, 10] | Binding of maternal HIV+ serum to peptide (sera/NHS ratio) [1, 11] | Binding of maternal HIV+ serum to peptide (sera/NHS ratio) [1, 12] | Binding of maternal HIV+ serum to peptide (sera/NHS ratio) [1, 13] | Binding of maternal HIV+ serum to peptide (sera/NHS ratio) [1, 14] | Binding of maternal HIV+ serum to peptide (sera/NHS ratio) [1, 15] | Binding of maternal HIV+ serum to peptide (sera/NHS ratio) [1, 16] | Binding of maternal HIV+ serum to peptide (sera/NHS ratio) [1, 17] | Binding of maternal HIV+ serum to peptide (sera/NHS ratio) [1, 18] | Binding of maternal HIV+ serum to peptide (sera/NHS ratio) [1, 19] | Binding of maternal HIV+ serum to peptide (sera/NHS ratio) [1, 20] | Binding of maternal HIV+ serum to peptide (sera/NHS ratio) [1, 21] | Binding of maternal HIV+ serum to peptide (sera/NHS ratio) [1, 22] | also measured
QNNLLRAIEAQQHLLQLTVWGI [Peptide 35] | - (specific OD450 or cpm of sera sample binding to peptide divided by the specific OD450 or cpm of NHS sample binding to peptide, which value is less than 2) | - (specific OD450 or cpm of sera sample binding to peptide divided by the specific OD450 or cpm of NHS sample binding to peptide, which value is less than 2) | + (which value is between 2 to 3) | - (specific OD450 or cpm of sera sample binding to peptide divided by the specific OD450 or cpm of NHS sample binding to peptide, which value is less than 2) | - (specific OD450 or cpm of sera sample binding to peptide divided by the specific OD450 or cpm of NHS sample binding to peptide, which value is less than 2) | - (specific OD450 or cpm of sera sample binding to peptide divided by the specific OD450 or cpm of NHS sample binding to peptide, which value is less than 2) | + (which value is between 2 to 3) | - (specific OD450 or cpm of sera sample binding to peptide divided by the specific OD450 or cpm of NHS sample binding to peptide, which value is less than 2) | - (specific OD450 or cpm of sera sample binding to peptide divided by the specific OD450 or cpm of NHS sample binding to peptide, which value is less than 2) | - (specific OD450 or cpm of sera sample binding to peptide divided by the specific OD450 or cpm of NHS sample binding to peptide, which value is less than 2) | - (specific OD450 or cpm of sera sample binding to peptide divided by the specific OD450 or cpm of NHS sample binding to peptide, which value is less than 2) | - (specific OD450 or cpm of sera sample binding to peptide divided by the specific OD450 or cpm of NHS sample binding to peptide, which value is less than 2) | - (specific OD450 or cpm of sera sample binding to peptide divided by the specific OD450 or cpm of NHS sample binding to peptide, which value is less than 2) | - (specific OD450 or cpm of sera sample binding to peptide divided by the specific OD450 or cpm of NHS sample binding to peptide, which value is less than 2) | - (specific OD450 or cpm of sera sample binding to peptide divided by the specific OD450 or cpm of NHS sample binding to peptide, which value is less than 2) | - (specific OD450 or cpm of sera sample binding to peptide divided by the specific OD450 or cpm of NHS sample binding to peptide, which value is less than 2) | - (specific OD450 or cpm of sera sample binding to peptide divided by the specific OD450 or cpm of NHS sample binding to peptide, which value is less than 2) | - (specific OD450 or cpm of sera sample binding to peptide divided by the specific OD450 or cpm of NHS sample binding to peptide, which value is less than 2) | - (specific OD450 or cpm of sera sample binding to peptide divided by the specific OD450 or cpm of NHS sample binding to peptide, which value is less than 2) | - (specific OD450 or cpm of sera sample binding to peptide divided by the specific OD450 or cpm of NHS sample binding to peptide, which value is less than 2) | Number of Non-Transmitters which bound to peptide [2]: 0; Percent of Non-Transmitters which bound to peptide [2]: 0%; Number of Transmitters which bound to peptide [2]: 0; Percent of Transmitters which bound to peptide [2]: 0%
RIQRGPGRAFVTIGK [p18p] | - (specific OD450 or cpm of sera sample binding to peptide divided by the specific OD450 or cpm of NHS sample binding to peptide, which value is less than 2) | - (specific OD450 or cpm of sera sample binding to peptide divided by the specific OD450 or cpm of NHS sample binding to peptide, which value is less than 2) | - (specific OD450 or cpm of sera sample binding to peptide divided by the specific OD450 or cpm of NHS sample binding to peptide, which value is less than 2) | - (specific OD450 or cpm of sera sample binding to peptide divided by the specific OD450 or cpm of NHS sample binding to peptide, which value is less than 2) | - (specific OD450 or cpm of sera sample binding to peptide divided by the specific OD450 or cpm of NHS sample binding to peptide, which value is less than 2) | - (specific OD450 or cpm of sera sample binding to peptide divided by the specific OD450 or cpm of NHS sample binding to peptide, which value is less than 2) | - (specific OD450 or cpm of sera sample binding to peptide divided by the specific OD450 or cpm of NHS sample binding to peptide, which value is less than 2) | - (specific OD450 or cpm of sera sample binding to peptide divided by the specific OD450 or cpm of NHS sample binding to peptide, which value is less than 2) | - (specific OD450 or cpm of sera sample binding to peptide divided by the specific OD450 or cpm of NHS sample binding to peptide, which value is less than 2) | - (specific OD450 or cpm of sera sample binding to peptide divided by the specific OD450 or cpm of NHS sample binding to peptide, which value is less than 2) | - (specific OD450 or cpm of sera sample binding to peptide divided by the specific OD450 or cpm of NHS sample binding to peptide, which value is less than 2) | ++ (which value is greater than 3) | ++ (which value is greater than 3) | ++ (which value is greater than 3) | ++ (which value is greater than 3) | + (which value is between 2 to 3) | ++ (which value is greater than 3) | - (specific OD450 or cpm of sera sample binding to peptide divided by the specific OD450 or cpm of NHS sample binding to peptide, which value is less than 2) | - (specific OD450 or cpm of sera sample binding to peptide divided by the specific OD450 or cpm of NHS sample binding to peptide, which value is less than 2) | + (which value is between 2 to 3) | Percentage of sera samples demonstrating binding to peptide, non-transmitter ([1]; Non-transmitter group, n = 13): 30.7%; Percentage of sera samples demonstrating binding to peptide, transmitter ([1]; Transmitter / transmission group, n = 7): 42.8%; Percent of the maternal serum samples that bound to the peptide ([1]; all 20 samples): 35%; Number of Non-Transmitters which bound to peptide [2]: 3; Percent of Non-Transmitters which bound to peptide [2]: 25%; Number of Transmitters which bound to peptide [2]: 0; Percent of Transmitters which bound to peptide [2]: 0%
